Measured values taken from the OligoGym collection.
HELM strings list units from the 5' end as sugar, base in round brackets, then linkage (d deoxyribose, r ribose, m 2'-O-methyl, p phosphodiester). Strings are as the collection lists them, not checked against the first reports. ss, as = sense and antisense strand; [lna] = locked nucleic acid (LNA); [una] = unlocked nucleic acid; [hna] = hexitol nucleic acid; [s4r] = 4'-thioribose; [fl2r] = 2'-fluoro

Settings: siRNA
Note: test system not given here.

Substance	target mRNA knockdown [%]
RNA1{r(A)p.r(G)p.r(U)p.r(C)p.r(C)p.r(C)p.m(U)p.r(G)p.r(G)p.r(A)p.r(G)p.r(C)p.r(C)p.r(U)p.m(U)p.r(A)p.r(A)p.r(A)p.r(C)p.r(T)p.r(T)}|RNA2{r(G)p.r(U)p.r(U)p.m(U)p.r(A)p.r(A)p.r(G)p.r(G)p.r(C)p.r(U)p.r(C)p.m(C)p.r(A)p.r(G)p.r(G)p.r(G)p.r(A)p.r(C)p.r(U)p.r(T)p.r(T)}$$$RNA1{StrandType:ss}|RNA2{StrandType:as}$	65
RNA1{[lna](A)p.r(A)p.r(A)p.r(C)p.r(A)p.r(U)p.r(G)p.r(C)p.r(A)p.r(G)p.r(A)p.r(A)p.r(A)p.r(A)p.r(U)p.r(G)p.r(C)p.r(U)p.r(G)p.[lna](T)p.[lna](T)}|RNA2{r(C)p.r(A)p.r(G)p.r(C)p.r(A)p.r(U)p.r(U)p.r(U)p.r(U)p.r(C)p.r(U)p.r(G)p.r(C)p.r(A)p.r(U)p.r(G)p.r(U)p.r(U)p.r(U)p.r(T)p.r(T)}$$$RNA1{StrandType:ss}|RNA2{StrandType:as}$	82
RNA1{r(A)p.r(A)p.r(C)p.r(U)p.r(U)p.r(C)p.m(U)p.r(G)p.r(G)p.r(G)p.r(A)p.r(G)p.r(C)p.r(C)p.r(U)p.r(C)p.m(C)p.r(A)p.r(A)p.r(T)p.r(T)}|RNA2{r(U)p.m(U)p.r(G)p.r(G)p.r(A)p.r(G)p.r(G)p.r(C)p.r(U)p.r(C)p.r(C)p.m(C)p.r(A)p.r(G)p.r(A)p.r(A)p.r(G)p.r(U)p.r(U)p.r(T)p.r(T)}$$$RNA1{StrandType:ss}|RNA2{StrandType:as}$	69
RNA1{r(C)p.r(U)p.r(U)p.r(A)p.r(C)p.r(G)p.r(C)p.r(U)p.r(G)p.r(A)p.r(G)p.r(U)p.r(A)p.r(C)p.r(U)p.r(U)p.r(C)p.r(G)p.r(A)p.r(T)p.r(T)}|RNA2{[lna](T)p.r(C)p.r(G)p.r(A)p.r(A)p.r(G)p.[lna](T)p.r(A)p.r(C)p.[lna](T)p.r(C)p.r(A)p.r(G)p.r(C)p.r(G)p.[lna](T)p.r(A)p.r(A)p.r(G)p.[lna](T)p.[lna](T)}$$$RNA1{StrandType:ss}|RNA2{StrandType:as}$	19
RNA1{r(A)p.r(U)p.r(C)p.r(G)p.r(A)p.r(C)p.r(C)p.r(U)p.r(G)p.r(A)p.r(A)p.r(G)p.r(G)p.r(A)p.r(G)p.[fl2r](U)p.r(A)p.r(C)p.r(G)p.r(T)p.r(T)}|RNA2{r(C)p.r(G)p.r(U)p.[fl2r](A)p.r(C)p.r(U)p.r(C)p.r(C)p.r(U)p.r(U)p.r(C)p.r(A)p.r(G)p.r(G)p.r(U)p.r(C)p.r(G)p.r(A)p.r(U)p.r(T)p.r(T)}$$$RNA1{StrandType:ss}|RNA2{StrandType:as}$	82
RNA1{r(G)p.r(U)p.r(A)p.r(U)p.r(G)p.r(A)p.r(C)p.r(C)p.r(G)p.r(A)p.r(C)p.r(U)p.r(A)p.r(C)p.r(G)p.r(C)p.r(G)p.r(U)p.r(A)p.r(T)p.r(T)}|RNA2{r(U)p.r(U)p.r(C)p.r(A)p.r(G)p.[una](U)p.r(G)p.r(U)p.r(G)p.r(A)p.r(U)p.r(G)p.r(A)p.r(C)p.r(A)p.r(C)p.r(U)p.r(U)p.r(G)p.r(T)p.r(T)}$$$RNA1{StrandType:ss}|RNA2{StrandType:as}$	78
RNA1{r(C)p.r(G)p.r(U)p.r(A)p.r(C)p.r(G)p.r(C)p.r(G)p.r(G)p.r(A)p.r(A)p.r(U)p.r(A)p.[s4r](C)p.[s4r](U)p.[s4r](U)p.[s4r](C)p.[s4r](G)p.[s4r](A)p.r(T)p.r(T)}|RNA2{[s4r](U)p.[s4r](C)p.[s4r](G)p.[s4r](A)p.[s4r](A)p.[s4r](G)p.r(U)p.r(A)p.r(U)p.r(U)p.r(C)p.r(C)p.r(G)p.r(C)p.r(G)p.r(U)p.r(A)p.r(C)p.r(G)p.r(T)p.r(T)}$$$RNA1{StrandType:ss}|RNA2{StrandType:as}$	10.9
RNA1{[una](U)p.r(G)p.r(A)p.r(A)p.r(U)p.r(C)p.r(A)p.r(G)p.r(A)p.r(A)p.r(G)p.r(A)p.r(U)p.r(G)p.r(A)p.r(A)p.r(G)p.r(U)p.r(C)p.r(A)p.r(A)}|RNA2{[una](G)p.r(A)p.r(C)p.r(U)p.r(U)p.r(C)p.r(A)p.r(U)p.r(C)p.r(U)p.r(U)p.r(C)p.r(U)p.r(G)p.r(A)p.r(U)p.r(U)p.r(C)p.r(A)p.r(A)p.r(G)}$$$RNA1{StrandType:ss}|RNA2{StrandType:as}$	0
RNA1{m(G)p.r(A)p.m(A)p.r(U)p.m(A)p.r(A)p.m(C)p.r(C)p.m(U)p.r(G)p.m(A)p.r(A)p.m(C)p.r(G)p.m(U)p.r(C)p.m(A)p.r(C)p.m(C)p.r(T)p.r(T)}|RNA2{r(G)p.r(G)p.r(U)p.r(G)p.m(A)p.r(C)p.r(G)p.r(U)p.r(U)p.r(C)p.m(A)p.r(G)p.r(G)p.r(U)p.r(U)p.m(A)p.r(U)p.r(U)p.r(C)p.r(T)p.r(T)}$$$RNA1{StrandType:ss}|RNA2{StrandType:as}$	21
RNA1{m(G)p.r(G)p.m(C)p.r(C)p.m(A)p.r(A)p.m(A)p.r(G)p.m(U)p.r(A)p.m(A)p.r(U)p.m(C)p.r(G)p.m(U)p.r(G)p.m(G)p.r(U)p.m(U)p.r(T)p.r(T)}|RNA2{r(A)p.r(A)p.r(C)p.r(C)p.r(A)p.r(C)p.r(G)p.r(A)p.r(U)p.r(U)p.r(A)p.r(C)p.r(U)p.r(U)p.r(U)p.r(G)p.r(G)p.r(C)p.r(C)p.r(T)p.r(T)}$$$RNA1{StrandType:ss}|RNA2{StrandType:as}$	37
RNA1{r(A)p.r(U)p.m(C)p.r(A)p.r(G)p.r(A)p.r(G)p.r(G)p.r(G)p.r(A)p.r(G)p.r(G)p.r(U)p.r(C)p.r(U)p.m(U)p.r(A)p.r(G)p.r(A)p.r(T)p.r(T)}|RNA2{r(U)p.r(C)p.m(U)p.r(A)p.r(A)p.r(G)p.r(A)p.r(C)p.r(C)p.r(U)p.r(C)p.r(C)p.r(C)p.r(U)p.r(C)p.m(U)p.r(G)p.r(A)p.r(U)p.r(T)p.r(T)}$$$RNA1{StrandType:ss}|RNA2{StrandType:as}$	68
RNA1{[fl2r](C)p.r(A)p.r(G)p.r(A)p.r(G)p.[fl2r](C)p.r(A)p.r(A)p.[fl2r](U)p.[fl2r](U)p.r(G)p.[fl2r](U)p.[fl2r](U)p.[fl2r](U)p.r(A)p.[fl2r](C)p.[fl2r](C)p.[fl2r](U)p.r(A)p.r(T)p.r(T)}|RNA2{[fl2r](U)p.r(A)p.r(G)p.r(G)p.[fl2r](U)p.r(A)p.r(A)p.r(A)p.[fl2r](C)p.r(A)p.r(A)p.[fl2r](U)p.[fl2r](U)p.r(G)p.[fl2r](C)p.[fl2r](U)p.[fl2r](C)p.r(U)p.r(G)p.r(T)p.r(T)}$$$RNA1{StrandType:ss}|RNA2{StrandType:as}$	72
RNA1{r(G)p.r(C)p.r(U)p.r(U)p.r(U)p.m(A)p.r(A)p.r(G)p.r(G)p.r(A)p.r(A)p.r(C)p.m(U)p.r(G)p.r(G)p.r(A)p.r(A)p.r(G)p.r(G)p.r(T)p.r(T)}|RNA2{r(C)p.r(C)p.r(U)p.r(U)p.r(C)p.m(C)p.r(A)p.r(G)p.r(U)p.r(U)p.r(C)p.r(C)p.r(U)p.r(U)p.r(A)p.r(A)p.r(A)p.r(G)p.r(C)p.r(T)p.r(T)}$$$RNA1{StrandType:ss}|RNA2{StrandType:as}$	74
RNA1{r(G)p.[hna](A)p.r(C)p.r(G)p.r(U)p.r(A)p.r(A)p.[hna](A)p.r(C)p.r(G)p.r(G)p.r(C)p.r(C)p.[hna](A)p.r(C)p.r(A)p.[hna](A)p.r(G)p.r(U)p.r(U)p.r(C)}|RNA2{r(A)p.m(C)p.r(U)p.r(U)p.r(G)p.r(U)p.r(G)p.r(G)p.r(C)p.r(C)p.r(G)p.r(U)p.r(U)p.r(U)p.r(A)p.r(C)p.r(G)p.r(U)p.r(C)p.r(G)p.r(C)}$$$RNA1{StrandType:ss}|RNA2{StrandType:as}$	54.2
